Earlier results as cited in patent US6358910B1, “Detergent compositions” (Lever Brothers Company, divison of Conopco, Inc., priority 1997, dated 2002).

Conditions: grams of solid to form a saturated solution in 100 grams of water at 20° C.

| Structure (SMILES) | Water Solubility (g/100 g) |
| --- | --- |
| O=BO[O-].[Na+] [Sodium perborate anhydrous] | 3.7 |
| O=P(O)(O)OP(=O)(O)OP(=O)(O)O [Sodium tripolyphosphate anhydrous] | 15 |
| NC(N)=O [Urea] | >100 |
